Experimental data reported in US7981883B2, “Substituted spiro-compounds and the use thereof for producing medicaments” (Gruenenthal GmbH, priority 2005, dated 2011).

Columns and labels:
Format in all cases: cell-based
VR1 (rat) [1] = biological target: T1, VR1 (rat) (Rattus norvegicus, UniProt O35433); assay: Functional FLIPR Ca2+ inflow assay on rat-species vanilloid receptor 1 in rat dorsal root ganglia cells; settings: against capsaicin (CAP)
T1 construct: from tissue; host or cells: primary cells dissociated from rat dorsal root ganglia
T1 sequence (O35433 whole entry): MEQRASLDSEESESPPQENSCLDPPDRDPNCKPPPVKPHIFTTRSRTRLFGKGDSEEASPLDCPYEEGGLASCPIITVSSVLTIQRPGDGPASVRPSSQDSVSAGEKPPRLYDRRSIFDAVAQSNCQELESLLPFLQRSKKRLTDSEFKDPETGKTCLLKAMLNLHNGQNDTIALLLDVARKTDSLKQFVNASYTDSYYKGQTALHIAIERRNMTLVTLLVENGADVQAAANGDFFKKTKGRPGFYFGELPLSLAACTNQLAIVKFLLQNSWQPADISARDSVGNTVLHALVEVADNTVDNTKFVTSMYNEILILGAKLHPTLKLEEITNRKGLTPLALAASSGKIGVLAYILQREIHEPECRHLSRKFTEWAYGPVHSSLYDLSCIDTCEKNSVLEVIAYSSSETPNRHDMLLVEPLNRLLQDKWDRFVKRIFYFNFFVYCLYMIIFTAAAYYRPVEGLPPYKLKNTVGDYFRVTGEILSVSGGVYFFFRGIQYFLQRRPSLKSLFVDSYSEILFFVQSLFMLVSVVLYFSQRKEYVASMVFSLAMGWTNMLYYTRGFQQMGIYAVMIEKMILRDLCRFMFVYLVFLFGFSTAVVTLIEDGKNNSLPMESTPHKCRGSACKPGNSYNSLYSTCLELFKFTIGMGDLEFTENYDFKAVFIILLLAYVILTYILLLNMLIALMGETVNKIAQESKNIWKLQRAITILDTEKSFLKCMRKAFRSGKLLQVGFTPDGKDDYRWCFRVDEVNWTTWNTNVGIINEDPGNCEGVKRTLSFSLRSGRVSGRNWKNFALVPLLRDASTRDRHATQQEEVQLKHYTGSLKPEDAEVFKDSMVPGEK

VR1 (human) [2] = biological target: T2, VR1 (human) (Homo sapiens, UniProt Q8NER1); assay: Functional FLIPR Ca2+ inflow assay on VR1 (human), CHO K1 cells stably transfected with the VR1 gene; settings: against capsaicin (CAP)
T2 construct: expressed in transfected cells; host or cells: CHO K1 cells (ECACC)
T2 sequence (Q8NER1 whole entry): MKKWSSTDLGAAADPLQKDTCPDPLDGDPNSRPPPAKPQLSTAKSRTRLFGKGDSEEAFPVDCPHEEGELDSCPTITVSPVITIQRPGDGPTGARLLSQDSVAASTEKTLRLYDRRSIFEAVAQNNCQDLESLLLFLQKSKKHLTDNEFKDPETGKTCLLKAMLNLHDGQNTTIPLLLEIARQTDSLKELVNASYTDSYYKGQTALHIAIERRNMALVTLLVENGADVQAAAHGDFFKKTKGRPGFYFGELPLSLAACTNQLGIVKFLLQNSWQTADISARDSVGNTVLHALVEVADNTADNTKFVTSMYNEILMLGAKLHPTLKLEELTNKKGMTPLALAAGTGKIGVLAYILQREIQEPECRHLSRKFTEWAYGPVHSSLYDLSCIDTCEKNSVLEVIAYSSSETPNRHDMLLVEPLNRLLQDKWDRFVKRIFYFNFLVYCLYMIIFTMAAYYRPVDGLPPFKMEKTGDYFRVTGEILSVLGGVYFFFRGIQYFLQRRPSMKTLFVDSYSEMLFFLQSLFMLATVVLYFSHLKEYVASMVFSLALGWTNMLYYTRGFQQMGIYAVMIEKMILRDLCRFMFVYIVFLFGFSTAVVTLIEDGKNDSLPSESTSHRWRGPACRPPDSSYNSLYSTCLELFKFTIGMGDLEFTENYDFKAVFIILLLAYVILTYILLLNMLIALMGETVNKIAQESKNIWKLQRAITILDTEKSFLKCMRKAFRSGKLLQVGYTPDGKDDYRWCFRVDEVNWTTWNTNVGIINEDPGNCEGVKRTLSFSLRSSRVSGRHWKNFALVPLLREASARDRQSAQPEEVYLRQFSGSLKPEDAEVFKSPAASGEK

VR1 (rat) [3] = biological target: T1, VR1 (rat); assay: Functional FLIPR Ca2+ inflow assay on rat-species vanilloid receptor 1 in rat dorsal root ganglia cells; settings: test compound 10 μM; for inhibition at 10 µM: read-out: VR1 (rat) (% inhibition compared to 10 μM CP); for activation at 10 µM: read-out: VR1 (rat) (% stimulation compared to 10 μM CP)
Excerpt: I. Functional Testing Carried Out on the Vanilloid Receptor 1 (VR1/TRPV1 Receptor)
(§1) The agonistic or antagonistic effect of the substances to be tested can be determined on the rat-species vanilloid receptor 1 (VR1/TRPV1) using the following assay. According to this assay, the Ca^2+ inflow is quantified through the receptor channel using a Ca^2+-sensitive dye (type Fluo-4, Molecular Probes Europe BV, Leiden, Netherlands) in a fluorescent imaging plate reader (FLIPR, Molecular Devices, Sunnyvale, USA).
Complete medium: 50 mL HAMS F12 nutrient mixture (Gibco Invitrogen GmbH, Karlsruhe, Germany) with
10% by volume of FCS (foetal calf serum, Gibco Invitrogen GmbH, Karlsruhe, Germany, […]);
2 mM L-glutamine (Sigma, Munich, Germany);
1% by weight of AA solution (antibiotic/antimyotic solution, PAA, Pasching, Austria) and 25 ng/ml NGF medium (2.5 S, Gibco Invitrogen GmbH, Karlsruhe, Germany)
Cell culture plate: Poly-D-lysine-coated, black 96 well plates having a clear base (96 well black/clear plate, BD Biosciences, Heidelberg, Germany) were additionally coated with laminin (Gibco Invitrogen GmbH, Karlsruhe, Germany), the laminin being diluted with PBS (Ca—Mg-free PBS, Gibco Invitrogen GmbH, Karlsruhe, Germany) to a concentration of 100 μg/mL. Aliquots having a laminin concentration of 100 μg/mL were removed and stored at −20° C. The aliquots were diluted with PBS in a ratio of 1:10 to 10 μg/mL laminin and in each case 50 μL of the solution were pipetted into a recess in the cell culture plate. The cell culture plates were incubated for at least two hours at 37° C., the excess solution was removed by suction-filtration and the recesses were each washed twice with PBS. The coated cell culture plates were stored with excess PBS which was not removed until just before the feeding of the cells.
The vertebral column was removed from decapitated rats and placed immediately into cold HBSS buffer (Hank's buffered saline solution, Gibco Invitrogen GmbH, Karlsruhe, Germany), i.e. buffer located in an ice bath, mixed with 1% by volume (percent by volume) of an AA solution (antibiotic/antimyotic solution, PAA, Pasching, Austria). The vertebral column was cut longitudinally and removed together with fasciae from the vertebral canal. Subsequently, the dorsal root ganglia (DRG) were removed and again stored in cold HBSS buffer mixed with 1% by volume of an AA solution. The DRG, from which all blood remnants and spinal nerves had been removed, were transferred in each case to 500 μL of cold type 2 collagenase (PAA, Pasching, Austria) and incubated for 35 minutes at 37° C. After the addition of 2.5% by volume of trypsin (PAA, Pasching, Austria), incubation was continued for 10 minutes at 37° C. After complete incubation, the enzyme solution was carefully pipetted off and 500 μL of complete medium were added to each of the remaining DRG. The DRG were in each case suspended several times, drawn through cannulae No. 1, No. 12 and No. 16 using a syringe and transferred to a 50 mL Falcon tube which was filled up to 15 mL with complete medium. The contents of each Falcon tube was in each case filtered through a 70 μm Falcon filter element and centrifuged for 10 minutes at 1,200 rpm and room temperature. The resulting pellet was in each case taken up in 250 μL of complete medium and the number of cells determined.
The number of cells in the suspension was set to 3×10^5 per mL and 150 μL of this suspension were in each case introduced into a recess in the cell culture plates coated as described hereinbefore. In the incubator the plates were left for two to three days at 37° C., 5% by volume of CO2 and 95% relative humidity. […]

VR1 (human) [4] = biological target: T2, VR1 (human); assay: Functional FLIPR Ca2+ inflow assay on VR1 (human), CHO K1 cells stably transfected with the VR1 gene; settings: test compound 10 μM; for inhibition at 10 µM / activation at 10 µM: CHO-K1; for inhibition at 10 µM: read-out: VR1 (human) (% inhibition compared to 10 μM CP); for activation at 10 µM: read-out: VR1 (human) (% stimulation compared to 10 μM CP)
Excerpt: II. Functional Testing Carried Out on the Vanilloid Receptor (VR1)
as §1, with “can also” for “can”, “the” for “the rat-species”, “(VR1)” for “1 (VR1/TRPV1)”, “the” for “the receptor”
Chinese hamster ovary cells (CHO K1 cells, European Collection of Cell Cultures (ECACC) United Kingdom) were stably transfected with the VR1 gene. For functional testing, these cells were plated out on poly-D-lysine-coated black 96 well plates having a clear base (BD Biosciences, Heidelberg, Germany) at a density of 25,000 cells/well. The cells were incubated overnight at 37° C. and 5% CO2 in a culture medium (Ham's F12 nutrient mixture, 10% by volume of FCS (foetal calf serum), 18 μg/ml L-proline). The next day the cells were incubated with Fluo-4 (Fluo-4 2 μM, 0.01% by volume of Pluronic F127, Molecular Probes in HBSS (Hank's buffered saline solution), Gibco Invitrogen GmbH, Karlsruhe, Germany) for 30 minutes at 37° C. Subsequently, the plates were washed three times with HBSS buffer and after further incubation for 15 minutes at room temperature used for Ca^2+ measurement in a FLIPR assay. The Ca^2+-dependent fluorescence was measured before and after the addition of the substances to be tested (λex wavelength=488 nm, λem=540 nm). Quantification was carried out by measuring the highest fluorescence intensity (FC, Fluorescence Counts) over time.
The FLIPR protocol consists of 2 substance additions. First the compounds to be tested (10 μM) were pipetted onto the cells and the Ca^2+ inflow was compared with the control (capsaicin 10 μM) (% activation based on the Ca^2+ signal after the addition of 10 μM capsaicin). After 5 minutes' incubation, 100 nM of capsaicin were administered and the Ca^2+ inflow was also determined.
Desensitising agonists and antagonists led to suppression of the Ca^2+ inflow. The % inhibition was calculated compared to the maximum achievable inhibition with 10 μM of capsaicin.

[5] = then 100 nM capsaicin after 5 min, relative to maximum inhibition with 10 μM capsaicin
[6] = Ca2+ signal relative to 10 μM capsaicin (CP)

IC50 (VR1 (rat) [1]) [nM] | Ki (VR1 (rat) [1]) [nM] | IC50 (VR1 (human) [2]) [nM] | Ki (VR1 (human) [2]) [nM] | VR1 (rat) (% inhibition compared to 10 μM CP) (VR1 (rat) [3]; [5]) [%] | VR1 (rat) (% stimulation compared to 10 μM CP) (VR1 (rat) [3]; [6]) [%] | VR1 (human) (% inhibition compared to 10 μM CP) (VR1 (human) [4]; [5]) [%] | VR1 (human) (% stimulation compared to 10 μM CP) (VR1 (human) [4]; [6]) [%] | inhibition at 10 µM (VR1 (rat) [3]; [5]) [%] | activation at 10 µM (VR1 (rat) [3]; [6]) [%] | inhibition at 10 µM (VR1 (human) [4]; [5]) [%] | activation at 10 µM (VR1 (human) [4]; [6]) [%] | SMILES
1550 | 894 | 3340 | 4860 | 91.46 | 1.05 | 61.74 | 0.41 |  |  |  |  | CC(C)(C)[C@H]1CC[C@@]2(CC1)CC(C(=O)N1CCN(c3ncccc3C(F)(F)F)CC1)=NO2 [Example 9, cis-(8-tert-butyl-1-oxa-2-azaspiro[4.5]dec-2-en-3-yl)-[4-(3-trifluoromethylpyridin-2-yl)piperazin-1-yl]methanone]
1220 | 341 | 2870 | 2050 |  |  |  |  | 103 | 48 | 42 | 35 | CCC(C)(C)C1CCC2(CC1)CC(C(=O)NCc1ccc(NS(C)(=O)=O)c(F)c1)=NO2 (stereo not drawn) [Example 80, N-(3-fluoro-4-(methylsulphonamido)benzyl)-8-tert-pentyl-1-oxa-2-azaspiro[4.5]dec-2-ene-3-carboxamide]
126 | 79.7 | 1240 | 1990 |  |  |  |  | 105 | 0.23 | 92.8 | -0.05 | CC(C)(C)[C@H]1CC[C@@]2(CC1)CC(C(=O)NCc1ccc(NS(C)(=O)=O)c(F)c1)=NO2 [Example 7, cis-8-tert-butyl-1-oxa-2-azaspiro[4.5]dec-2-ene-3-carboxylic acid-3-fluoro-4-methanesulphonylaminobenzylamide]
